Test results from patent US20200061062A1, “INHIBITORS OF HUMAN PHOSPHATIDYLINOSITOL 3-KINASE DELTA” (ICOS Corporation, priority 2000, published 2020).
Read-outs that look alike come from different tables or passages of the source.

Key:
[1] = system: human neutrophils; assay: fMLP-induced human neutrophil migration; type: cell-based
Experimental: Neutrophils have the intrinsic capacity to migrate through tissues, and are one of the first cell types to arrive at the sites of inflammation or tissue injury. The effect of D-000 on neutrophil migration towards a concentration gradient of fMLP was measured. The day before the migration assays were performed, 6-well plates were coated with recombinant ICAM-1/Fc fusion protein (Van der Vieren et al., Immunity, 3:683-690 (1995)) (25 μg/mL in bicarbonate buffer, pH 9.3) and left overnight at 4° C. After washing, 1% agarose solution, in RPMI-1640 with 0.5% bovine serum albumin (BSA), was added to wells with or without an inhibitor, and plates were placed into a refrigerator before punching holes in the gelled agarose to create plaques (1 central hole surrounded by 6 peripheral ones per well).
Human neutrophils were obtained as described above, and resuspended in RPMI medium supplemented with 0.5% BSA at 5×10^6 cells/mL. After combining equal volumes of neutrophil suspension and medium (either with DMSO or a serial dilution of the test compound in DMSO), neutrophils were aliquoted into the peripheral holes, while the central hole received fMLP (5 μM). Plates were incubated at 37° C. in the presence of 5% CO2 for 4 hr, followed by termination of migration by the addition of 1% glutaraldehyde solution in D-PBS. After removing the agarose layer, wells were washed with distilled water and dried.
Analysis of neutrophil migration was conducted on a Nikon DIAPHOT® inverted microscope (1× objective) video workstation using the NIH 1.61 program. Using Microsoft Excel and Table Curve 4 (SSPS Inc., Chicago Ill.) programs, a migration index was obtained for each of the studied conditions. Migration index was defined as the area under a curve representing number of migrated neutrophils versus the net distance of migration per cell.
Using the methods described in Examples 3-5, above, compounds of the invention were tested for inhibitory activity and potency in assays of stimulated B and T cell proliferation, neutrophil (PMN) migration, and neutrophil (PMN) elastase release. In Table 4, the values shown are effective concentrations of the compound (EC50; μM). Where no value is given, no assay was performed.

[2] = molecular target: PI3Kδ (Homo sapiens, UniProt O00329, S253N); assay: Biochemical assay using 200 μM ATP, Delta;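 note: radiometric filter-binding assay: PI3Kδ transfers ³²P from γ-[³²P]ATP onto PIP2/PS liposomes, counted by scintillation, enzyme-only wells as positive control, no-enzyme wells as background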
Chain of PI3Kδ (O00329 whole entry S253N): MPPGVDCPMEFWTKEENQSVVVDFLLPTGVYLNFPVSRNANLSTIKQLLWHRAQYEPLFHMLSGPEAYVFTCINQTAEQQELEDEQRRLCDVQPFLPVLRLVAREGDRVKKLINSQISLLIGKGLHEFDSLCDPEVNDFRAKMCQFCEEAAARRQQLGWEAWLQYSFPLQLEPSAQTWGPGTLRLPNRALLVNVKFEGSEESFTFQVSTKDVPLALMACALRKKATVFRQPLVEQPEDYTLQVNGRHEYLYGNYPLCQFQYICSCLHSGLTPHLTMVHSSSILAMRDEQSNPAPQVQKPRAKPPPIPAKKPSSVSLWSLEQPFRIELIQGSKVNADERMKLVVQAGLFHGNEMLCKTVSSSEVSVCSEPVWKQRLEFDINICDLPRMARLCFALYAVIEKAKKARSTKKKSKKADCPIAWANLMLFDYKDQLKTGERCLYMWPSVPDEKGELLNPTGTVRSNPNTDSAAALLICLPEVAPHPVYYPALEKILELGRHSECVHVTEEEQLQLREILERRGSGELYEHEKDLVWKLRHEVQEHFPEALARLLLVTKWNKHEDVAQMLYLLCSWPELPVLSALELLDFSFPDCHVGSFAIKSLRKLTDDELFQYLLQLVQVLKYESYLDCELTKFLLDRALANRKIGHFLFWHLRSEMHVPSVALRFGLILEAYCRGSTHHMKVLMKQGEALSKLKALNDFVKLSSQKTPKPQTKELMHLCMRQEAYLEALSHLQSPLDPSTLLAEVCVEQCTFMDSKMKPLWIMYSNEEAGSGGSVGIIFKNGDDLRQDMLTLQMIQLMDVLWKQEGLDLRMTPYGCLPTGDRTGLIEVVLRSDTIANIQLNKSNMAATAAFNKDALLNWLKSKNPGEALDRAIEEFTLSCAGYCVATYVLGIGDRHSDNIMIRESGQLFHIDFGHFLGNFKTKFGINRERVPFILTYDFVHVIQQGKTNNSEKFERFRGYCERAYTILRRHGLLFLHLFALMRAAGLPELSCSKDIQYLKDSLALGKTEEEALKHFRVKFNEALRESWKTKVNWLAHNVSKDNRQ
Chain of PI3Kδ (P27986 whole entry partner): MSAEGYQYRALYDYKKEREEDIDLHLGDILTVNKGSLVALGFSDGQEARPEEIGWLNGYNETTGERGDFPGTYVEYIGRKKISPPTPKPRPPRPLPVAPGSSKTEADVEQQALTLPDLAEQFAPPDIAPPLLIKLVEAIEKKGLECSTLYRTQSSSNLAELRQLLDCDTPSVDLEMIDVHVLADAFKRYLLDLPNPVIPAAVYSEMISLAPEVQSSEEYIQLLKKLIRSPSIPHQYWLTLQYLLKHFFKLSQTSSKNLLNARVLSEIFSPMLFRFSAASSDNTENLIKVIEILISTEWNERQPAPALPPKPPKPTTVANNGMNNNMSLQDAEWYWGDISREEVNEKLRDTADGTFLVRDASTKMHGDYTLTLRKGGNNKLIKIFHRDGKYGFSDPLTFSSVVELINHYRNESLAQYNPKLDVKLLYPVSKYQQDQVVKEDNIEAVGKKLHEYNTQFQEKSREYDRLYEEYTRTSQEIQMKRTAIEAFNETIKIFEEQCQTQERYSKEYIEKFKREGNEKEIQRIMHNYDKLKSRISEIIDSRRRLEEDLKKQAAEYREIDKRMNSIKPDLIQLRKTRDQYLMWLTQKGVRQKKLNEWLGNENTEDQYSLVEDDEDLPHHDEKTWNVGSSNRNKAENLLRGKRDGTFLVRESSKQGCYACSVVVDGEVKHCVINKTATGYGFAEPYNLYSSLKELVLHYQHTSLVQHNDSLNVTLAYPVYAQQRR

[3] = system: T cell proliferation; assay: Stimulated T cell proliferation (Mouse TCE Stim, Table 4); type: cell-based; conditions: stimulated T cell proliferation, read-out: Mouse TCE Stim (EC50)
[4] = molecular target: T1, PI3Kα (Homo sapiens, UniProt P42336); assay: Biochemical assay using 200 μM ATP, Alpha
T1 construct: His tag (pFastbac HTb vector) (N); FLAG; made in house; host or cells: Sf21 insect cells (baculovirus)
T1 sequence (P42336 whole entry): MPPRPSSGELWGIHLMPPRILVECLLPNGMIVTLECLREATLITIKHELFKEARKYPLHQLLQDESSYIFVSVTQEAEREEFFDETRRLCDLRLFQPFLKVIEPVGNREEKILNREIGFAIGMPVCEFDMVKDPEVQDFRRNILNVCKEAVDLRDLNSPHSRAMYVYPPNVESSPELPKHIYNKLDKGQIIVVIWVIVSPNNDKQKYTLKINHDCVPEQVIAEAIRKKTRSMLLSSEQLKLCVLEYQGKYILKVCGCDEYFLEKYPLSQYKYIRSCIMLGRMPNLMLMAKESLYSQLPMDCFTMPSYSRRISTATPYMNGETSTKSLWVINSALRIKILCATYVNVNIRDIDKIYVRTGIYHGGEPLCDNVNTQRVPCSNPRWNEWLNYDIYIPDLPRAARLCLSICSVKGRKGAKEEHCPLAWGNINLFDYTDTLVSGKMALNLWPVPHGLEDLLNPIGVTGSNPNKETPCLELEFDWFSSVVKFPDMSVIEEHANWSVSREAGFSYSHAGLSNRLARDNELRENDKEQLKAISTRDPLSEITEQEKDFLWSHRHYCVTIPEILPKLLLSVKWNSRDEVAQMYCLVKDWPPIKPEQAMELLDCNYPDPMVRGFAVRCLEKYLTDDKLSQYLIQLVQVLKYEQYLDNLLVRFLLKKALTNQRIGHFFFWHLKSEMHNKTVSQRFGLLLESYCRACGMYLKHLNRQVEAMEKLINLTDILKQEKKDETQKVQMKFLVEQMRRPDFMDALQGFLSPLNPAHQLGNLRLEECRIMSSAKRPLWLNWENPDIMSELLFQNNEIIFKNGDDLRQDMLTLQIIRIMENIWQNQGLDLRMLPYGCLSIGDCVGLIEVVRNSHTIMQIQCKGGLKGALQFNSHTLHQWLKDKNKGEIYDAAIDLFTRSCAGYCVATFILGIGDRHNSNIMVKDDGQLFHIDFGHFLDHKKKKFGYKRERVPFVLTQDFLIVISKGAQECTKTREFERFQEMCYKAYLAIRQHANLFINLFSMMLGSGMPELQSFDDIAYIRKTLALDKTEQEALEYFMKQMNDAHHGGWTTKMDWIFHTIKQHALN
T1 sequence (P27986 whole entry partner): as the sequence (P27986 whole entry partner) above

[5] = system: basophils; assay: Basophil histamine release assay; type: cell-based, human
Experimental: Assessment of the effect of a compound of the invention on basophil function was tested using a conventional histamine release assay, generally in accordance with the method described in Miura et al., J Immunol, 162:4198-206 (1999). Briefly, enriched basophils were preincubated with test compounds at several concentrations from 0.1 nM to 1,000 nM, for 10 min at 37° C. Then, polyclonal goat antihuman IgE (0.1 μg/mL) or fMLP was added, and allowed to incubate for an additional 30 min. Histamine released into the supernatant was measured using an automated fluorometric technique. Two compounds were tested, shown below.

[6] = system: T cells; assay: T cell proliferation in response to costimulation of CD3+CD28; type: cell-based; conditions: Homo sapiens, highest tested concentration 10 μM, read-out: Half-maximal inhibition of thymidine incorporation (anti-CD3- and anti-CD28-induced T cell proliferation)
Experimental: T cell proliferation in response to costimulation of CD3+CD28 was measured. T cells were purified from healthy human blood by negative selection using antibody coated magnetic beads according to the manufacturer's protocol (Dynal) and resuspended in RPMI. The cells were treated with either DMSO or a serial dilution of D-000 in DMSO and plated at 1×10^5 cells/well on a 96-well plate precoated with goat antimouse IgG. Mouse monoclonal anti-CD3 and anti-CD28 antibodies were then added to each well at 0.2 ng/mL and 0.2 μg/mL, respectively. The plate was incubated at 37° C. for 24 hr and [^3H]-thymidine (1 μCi/well) was added. After another 18 hr incubation the cells were harvested with an automatic cell harvester, washed and the incorporated radioactivity was quantified.

[7] = system: KU812; assay: Cancer cell proliferation, [3H]-thymidine incorporation, KU812; type: cell-based; conditions: Homo sapiens, 120 h; KU812 line; five days; read-out: EC50, inhibition of cell growth
Experimental: (§1) The effect of compounds of the invention on cancer cell proliferation was evaluated by testing one of the compounds against a panel of Chronic Myeloid Leukemia (CML) cell lines, including KU812, RWLeu4, K562, and MEG-01.
(§2) The inhibitory activity of the compound (D-000, dissolved in DMSO) was determined as follows. The tested compound was added in a series of concentrations (0.001 μM to 20 μM) to 96-well microtiter plates with cells (1000 to 5000 cells/well). Plates were incubated for five days at 37° C. during which the control cultures without test compound were able to undergo at least two cell-division cycles. Cell growth was measured by incorporation of [^3H]-thymidine for eighteen hours added at days three, four, and five. Cells were transferred to a filter, washed and the radioactivity counted using a Matrix 96 beta counter (Packard). The percentage of cell growth was measured as follows: […]

[8] = system: K562; assay: Cancer cell proliferation, [3H]-thymidine incorporation, K562; type: cell-based; conditions: K562 line; 0.001 μM to 20 μM
Experimental: as §1, §2

[9] = neutrophil (PMN) migration, read-out: Human PMN Migration (EC50)

## O=c1c2c(F)cccc2nc(CSc2ncnc3[nH]cnc23)n1-c1ccccc1Cl [Compound D-015, 3-(2-Chlorophenyl)-5-fluoro-2-(9H-purin-6-ylsulfanylmethyl)-3H-quinazolin-4-one]
[1]; [9]
  EC50: 2 µM
other
  melting point: 222.7 to 223.8 °C
[2]
  IC50: 1.1 ± 0.5 µM
[3]
  EC50: 1.8 µM
[4]
  Alpha/Delta Ratio: 180

## O=c1c2ccccc2nc(CSc2ncnc3[nH]ncc23)n1-c1ccccc1Cl [Compound D-999, 3-(2-Chlorophenyl)-2-(1H-pyrazolo[3,4-d]pyrimidin-4-ylsulfanylmethyl)-3H-quinazolin-4-one, reference compound]
[1]; [9]
  EC50: 1 µM
[5]; anti-IgE
  Efficacy in the inhibition of histamine release compared with D-026: less efficacious
[5]; fMLP stimulus
  Effect on histamine release, basophils stimulated with fMLP: Neither compound elicited any effect
[2]
  IC50: 75 µM
[3]
  EC50: 5.9 µM
[4]
  Alpha/Delta Ratio: 2

## O=c1c2c(Cl)cccc2nc(CSc2ncnc3[nH]cnc23)n1-c1ccccc1Cl [Compound D-025, 5-Chloro-3-(2-chlorophenyl)-2-(9H-purin-6-ylsulfanylmethyl)-3H-quinazolin-4-one]
[1]; [9]
  EC50: 0.3 ± 0.3 µM
other
  melting point: 233.7 to 234.4 °C (dec.)
[2]
  IC50: 0.32 ± 0.3 µM
[3]
  EC50: 4.4 ± 0.6 µM
[4]
  Alpha/Delta Ratio: 556

## O=c1c2ccccc2nc(CSc2ncnc3[nH]cnc23)n1-c1ccccc1Cl [Compound D-000, 3-(2-chlorophenyl)-2-(9H-purin-6-ylsulfanylmethyl)-3H-quinazolin-4-one]
[1]; Neutrophil, fMLP (5 μM) gradient, 4 hr, FIG. 5, read-out: EC50 for inhibition of neutrophil migration
  EC50: ~1 µM
[1]; [9]
  EC50: 1 to 5 µM
[6]
  IC50: > 10 µM
[7]
  EC50: ~2 µM
[2]
  IC50: 2 ± 1 µM
[3]
  EC50: 5.5 ± 4 µM
[8]
  Effect on cell growth: not found to exhibit an effect
[4]
  Alpha/Delta Ratio: 91
